Measurements: patent US7829588B2, “Modulators of the PPAR-type receptors and pharmaceutical/cosmetic applications thereof” (Galderma Research & Development, priority 2003, dated 2010)

Key:
PPARγ = target: T1, PPARγ (Homo sapiens, UniProt P37231); experiment: Cross curve PPAR transactivation test (luciferase reporter, HeLN cells), PPARγ; type: cell-based; details: HeLN cells stably transfected with Gal-hPPARγ and ERE-βGlob-Luc-SV-Neo; Schild regression against reference agonist; read-out: PPAR γ Kd app
T1 construct: luciferase reporter plasmid ERE-βGlob-Luc-SV-Neo
T1 sequence (P37231 238-505 limits assumed): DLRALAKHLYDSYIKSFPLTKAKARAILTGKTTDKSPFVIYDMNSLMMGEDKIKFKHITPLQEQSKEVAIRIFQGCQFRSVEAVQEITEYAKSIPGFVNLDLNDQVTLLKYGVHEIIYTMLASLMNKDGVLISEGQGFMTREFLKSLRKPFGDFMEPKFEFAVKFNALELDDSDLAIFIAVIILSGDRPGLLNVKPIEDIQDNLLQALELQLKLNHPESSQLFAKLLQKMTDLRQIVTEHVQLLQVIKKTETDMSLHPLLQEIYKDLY
Procedure: (§1) The activation of receptors with an agonist (activator) in HeLN cells leads to the expression of a reporter gene, luciferase, which, in the presence of a substrate, generates light. The modulation of the receptors is measured as quantity of luminescence produced after incubating the cells in the presence of a reference agonist. The ligands will displace the agonist from its site. The measurement of the activity is performed by quantification of the light produced. This measurement makes it possible to determine the modulatory activity of the compounds according to the invention by determining the constant which is the affinity of the molecule for the receptor. […]
(§2) The various dilutions of the test products and of the reference ligand are added in an amount of 5 μl per well. […] After 5 minutes, the plates are read by the luminescence reader.
(§3) These cross curves make it possible to determine the AC50 values (concentrations at which 50% activation is observed) for the reference ligand at various concentrations of test product. These AC50 values are used to calculate the Schild regression by plotting a straight line corresponding to the Schild equation (“Quantitation in Receptor Pharmacology” Terry P. Kenakin, Receptors and Channels, 2001, 7, 371-385) which leads to Kd app values being obtained (in nM).

PPARα = target: T2, PPARα (Homo sapiens, UniProt Q07869); experiment: Cross curve PPAR transactivation test (luciferase reporter, HeLN cells), PPARα; type: cell-based; details: HeLN cells stably transfected with Gal-hPPARα and ERE-βGlob-Luc-SV-Neo; Schild regression against reference agonist; n.a. means not active; read-out: PPAR α Kd app
T2 sequence (Q07869 200-468 limits assumed): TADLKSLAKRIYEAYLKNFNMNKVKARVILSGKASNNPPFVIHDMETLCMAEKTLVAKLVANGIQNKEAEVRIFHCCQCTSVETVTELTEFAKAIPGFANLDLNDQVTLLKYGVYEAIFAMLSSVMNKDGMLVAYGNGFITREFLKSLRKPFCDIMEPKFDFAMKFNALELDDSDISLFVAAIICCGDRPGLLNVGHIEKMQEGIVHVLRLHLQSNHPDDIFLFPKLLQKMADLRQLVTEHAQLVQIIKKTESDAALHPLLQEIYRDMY
Procedure: as §1, §2, §3

| Kd (PPARγ) [nM] | Kd (PPARα) [nM] | Compound |
| --- | --- | --- |
| 60 | – | CCCCCCCOc1cc(Sc2nnc(-c3ccc(C(C)(C)C)cc3)n2C)ccc1CNc1ccc(CC(=O)OCC)cc1 [Example 1, Ethyl(4-{4-[5-(4-tert-butylphenyl)-4-methyl-4H-[1,2,4]-triazol-3-ylsulfanyl]-2-heptyloxybenzylamino}phenyl)acetate] |
| 15 | 8000 | CCCCCCCOc1cc(Sc2nnc(-c3ccc(C(C)(C)C)cc3)n2C)ccc1CNc1ccc(CC(=O)O)cc1 [Example 2, (4-{4-[5-(4-tert-Butylphenyl)-4-methyl-4H-[1,2,4]-triazol-3-ylsulfanyl]-2-heptyloxybenzylamino}phenyl)acetic acid] |
